What all share (type): biochemical
For one assay, the target named is T1, PDGFRβ kinase (Homo sapiens, UniProt P09619).
T1 construct: purchased Invitrogen Inc. P3082
The experiment in a line: In vitro PDGFRβ kinase assay. The following applies: ADP Quest assay, poly Glu:Tyr substrate, 60 μM ATP. The protocol: (§1) In vitro vegfr2 and PDGFRβ Kinase Assays
(§2) 2.5 μl of ADP Quest assay buffer (DiscoverX Inc., cat. #90-0071) containing 20 ng VEGFR2 kinase (Invitrogen Inc, cat. #PV3660) or 25 ng PDGFRβ kinase (Invitrogen Inc., cat. #P3082) is dispensed to wells of a 1536 multi-well, black solid plate. 60 nl of 100× concentration of test compound in DMSO is dispensed to the well by passive pin transfer and incubated for 10 minutes at room temperature (approx. 22° C.). 2.5 μl of ADP Quest assay buffer containing 0.25 μg of poly Glu:Tyr (4:1) substrate peptide (Upstate Inc., cat. #12-440) and 60 μM ATP is then dispensed and the kinase reaction allowed to incubate at 30° C. for 2 hours. The assay plates are sealed and maintained in a humidified environment. After the 2 hour incubation, 2 μl of ADP Quest assay reagent A, followed by 2 μl of assay reagent B, is added. After an additional 30 minute incubation at room temperature, fluorescence intensity is measured on a Molecular Devices Aquest multi-mode plate reader or other suitable plate reader (fluorescence excitation filter: 530/25 [Peak (nm)/FWHM passband (nm)]; dichroic beamsplitter: 561 nm longpass; fluorescence emission filter: 580/10 [Peak (nm)/FWHM passband (nm)]. The assay measures the conversion of a non-fluoresecent molecule to fluorescent resorutin, which correlates with kinase activity. Negative control activity is measured with DMSO lacking any test compound. The positive control is [N-(3-trifluoromethyl-4-chlorophenyl)-N′-(4-(2-methylcarbamoyl-pyridin-4-yl)oxyphenyl)urea], aka Bay 43-9006. Efficacy is measured as a percentage of positive control activity.

The target of assay [1] is T2, human B-Raf protein kinase (Homo sapiens, UniProt P15056).
T2 construct: GST (N); purchased Upstate Inc. 14-530 (B-Raf); 14-420 (Mek1)
Nature of the assay: In vitro B-Raf/Mek1 composite kinase assay. The following applies: recombinant GST-tagged human B-Raf (Δ1-415) with inactive Mek1, 2 μM ATP. As to the method:
In Vitro B-Raf/Mek1 Composite Kinase Assay
2.5 μl of B-Raf kinase buffer (20 mM MOPS [pH 7.2], 25 mM sodium glycerophosphate, 2 mM EGTA [pH 8.0], 1 mM sodium orthovanadate, 1 mM dithiothreitol, 10 mM MgCl2, 0.03% Brij-35, 0.3 mg/ml bovine serum albumin) containing 1 ng of recombinant, N-terminal GST-tagged human B-Raf protein kinase (Δ1-415, Upstate Inc., cat. #14-530) is dispensed to wells of a 1536 multi-well white solid plate. 60 nl of 100× concentration of test compound in DMSO is dispensed to the well by passive pin transfer and incubated for 15 minutes at room temperature (approx. 22° C.). […] The assay plates are sealed and maintained in a humidified environment. After 2 hours, 2.5 μl of PKLight protein kinase assay reagent (Cambrex, cat. #LT07-501) is dispensed. After an additional 5 minute incubation at room temperature, luminescence activity is measured on a Molecular Devices Analyst multi-mode plate reader or other suitable plate reader. Kinase inhibition results in less ATP depletion, and therefore increased luminescence signal. Negative control activity is measured with DMSO lacking any test compound. The positive control is [N-(3-trifluoromethyl-4-chlorophenyl)-N′-(4-(2-methylcarbamoyl-pyridin-4-yl)oxyphenyl)urea], aka Bay 43-9006. Efficacy is measured as a percentage of positive control activity.

The target in a further assay is T3, VEGFR2 kinase (Homo sapiens, UniProt P35968).
T3 construct: purchased Invitrogen Inc PV3660
Nature of the assay: In vitro VEGFR2 kinase assay. To be noted: ADP Quest assay, poly Glu:Tyr substrate, 60 μM ATP. The protocol:
as §1, §2

Among the data in patent US20070155764A1, “NOVEL SUBSTITUTED PYRIMIDINYLOXY UREAS USEFUL AS INHIBITORS OF PROTEIN KINASES” (KALYPSYS, INC., priority 2005, published 2007) are IC50 values, retold here.

Molecules are shown by their SMILES.

T1 sequence (P09619 33-1106): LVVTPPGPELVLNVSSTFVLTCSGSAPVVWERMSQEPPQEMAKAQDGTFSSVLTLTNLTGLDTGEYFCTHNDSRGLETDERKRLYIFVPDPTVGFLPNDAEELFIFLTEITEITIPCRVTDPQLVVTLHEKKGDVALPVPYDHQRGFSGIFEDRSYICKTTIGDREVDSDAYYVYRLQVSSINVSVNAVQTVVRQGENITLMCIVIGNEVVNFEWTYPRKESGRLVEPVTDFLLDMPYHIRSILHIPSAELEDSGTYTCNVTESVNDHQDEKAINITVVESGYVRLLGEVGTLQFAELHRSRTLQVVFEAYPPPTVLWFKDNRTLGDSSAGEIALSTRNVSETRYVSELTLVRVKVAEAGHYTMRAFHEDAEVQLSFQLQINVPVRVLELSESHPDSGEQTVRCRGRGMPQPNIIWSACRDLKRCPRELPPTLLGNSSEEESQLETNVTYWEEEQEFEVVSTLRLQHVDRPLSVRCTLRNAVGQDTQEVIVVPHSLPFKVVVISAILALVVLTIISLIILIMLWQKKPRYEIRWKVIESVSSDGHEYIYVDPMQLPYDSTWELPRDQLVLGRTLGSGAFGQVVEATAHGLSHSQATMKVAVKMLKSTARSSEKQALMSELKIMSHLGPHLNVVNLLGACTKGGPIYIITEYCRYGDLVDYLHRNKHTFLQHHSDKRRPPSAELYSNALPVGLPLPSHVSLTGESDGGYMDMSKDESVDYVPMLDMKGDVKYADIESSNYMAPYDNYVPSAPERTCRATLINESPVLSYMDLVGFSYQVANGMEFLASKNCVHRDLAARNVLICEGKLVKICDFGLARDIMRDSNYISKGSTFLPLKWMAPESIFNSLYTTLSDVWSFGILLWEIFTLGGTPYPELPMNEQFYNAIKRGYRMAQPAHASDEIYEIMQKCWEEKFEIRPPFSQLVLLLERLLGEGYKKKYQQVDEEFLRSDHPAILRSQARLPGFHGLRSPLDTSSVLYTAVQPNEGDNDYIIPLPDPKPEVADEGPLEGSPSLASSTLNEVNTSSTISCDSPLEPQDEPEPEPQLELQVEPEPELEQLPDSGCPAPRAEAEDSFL
T2 sequence (P15056 416-766): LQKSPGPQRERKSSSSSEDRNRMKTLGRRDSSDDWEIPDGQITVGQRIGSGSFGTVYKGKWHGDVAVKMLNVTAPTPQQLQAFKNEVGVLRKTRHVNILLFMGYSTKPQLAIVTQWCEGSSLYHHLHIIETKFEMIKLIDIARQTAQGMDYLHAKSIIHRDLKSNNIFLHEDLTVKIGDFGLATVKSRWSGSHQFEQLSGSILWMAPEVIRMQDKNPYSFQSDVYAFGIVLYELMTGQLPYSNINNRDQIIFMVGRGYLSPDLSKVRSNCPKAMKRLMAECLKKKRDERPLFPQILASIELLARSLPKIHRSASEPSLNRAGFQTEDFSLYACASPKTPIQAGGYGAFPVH
T3 sequence (P35968 20-1356): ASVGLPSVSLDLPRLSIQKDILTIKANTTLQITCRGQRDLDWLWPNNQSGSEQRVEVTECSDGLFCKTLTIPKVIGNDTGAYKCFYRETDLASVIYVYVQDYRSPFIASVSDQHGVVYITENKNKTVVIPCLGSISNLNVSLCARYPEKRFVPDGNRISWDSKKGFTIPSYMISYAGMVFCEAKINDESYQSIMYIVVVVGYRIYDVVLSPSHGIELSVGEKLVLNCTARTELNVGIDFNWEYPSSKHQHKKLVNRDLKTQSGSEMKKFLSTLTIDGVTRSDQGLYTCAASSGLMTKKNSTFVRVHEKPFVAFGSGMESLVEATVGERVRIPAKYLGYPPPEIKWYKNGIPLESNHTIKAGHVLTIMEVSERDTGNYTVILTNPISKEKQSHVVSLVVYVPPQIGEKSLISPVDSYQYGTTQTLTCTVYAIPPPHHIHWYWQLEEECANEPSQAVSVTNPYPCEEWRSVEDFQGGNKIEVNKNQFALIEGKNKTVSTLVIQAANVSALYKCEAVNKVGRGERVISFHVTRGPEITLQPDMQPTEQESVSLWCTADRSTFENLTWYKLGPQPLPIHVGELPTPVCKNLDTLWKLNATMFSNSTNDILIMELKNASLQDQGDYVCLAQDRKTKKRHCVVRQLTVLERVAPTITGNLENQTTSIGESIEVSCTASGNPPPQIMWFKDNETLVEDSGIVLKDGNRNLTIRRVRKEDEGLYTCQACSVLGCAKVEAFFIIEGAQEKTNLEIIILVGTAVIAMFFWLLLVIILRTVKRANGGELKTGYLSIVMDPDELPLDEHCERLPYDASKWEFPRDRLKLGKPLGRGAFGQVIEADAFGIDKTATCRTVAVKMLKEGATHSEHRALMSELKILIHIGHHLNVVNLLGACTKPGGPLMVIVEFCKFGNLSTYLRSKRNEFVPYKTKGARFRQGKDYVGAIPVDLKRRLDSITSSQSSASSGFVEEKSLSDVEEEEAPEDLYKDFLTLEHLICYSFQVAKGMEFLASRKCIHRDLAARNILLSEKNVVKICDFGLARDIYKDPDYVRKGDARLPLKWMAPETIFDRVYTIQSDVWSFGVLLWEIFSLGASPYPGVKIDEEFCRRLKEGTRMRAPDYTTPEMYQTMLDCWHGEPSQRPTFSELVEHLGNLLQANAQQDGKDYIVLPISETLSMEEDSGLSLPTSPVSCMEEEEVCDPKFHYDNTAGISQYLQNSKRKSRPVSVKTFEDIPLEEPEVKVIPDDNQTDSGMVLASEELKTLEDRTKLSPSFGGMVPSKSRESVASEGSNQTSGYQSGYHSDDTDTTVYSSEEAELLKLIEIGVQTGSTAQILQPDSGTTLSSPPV

Usually IC50 stands for the concentration that inhibits the measured activity by half. For `O=C(Nc1ccc(Oc2ccnc(-c3nnco3)c2)cc1)Nc1cc(C(F)(F)F)c(Cl)cc1OCCN1CCCC1` [Example 41, 1-(4-(2-(1,3,4-Oxadiazol-2-yl)pyridin-4-yloxy)phenyl)-3-(4-chloro-2-(2-(pyrrolidin-1-yl)ethoxy)-5-(trifluoromethyl)phenyl)urea], the IC50 (on PDGFRβ kinase; in assay [1]; against VEGFR2 kinase) was no more than 10 µM throughout.
Consider `O=C(Nc1cccc(Oc2cc(-c3ccno3)ncn2)c1)Nc1ccc(Cl)c(C(F)(F)F)c1` [Example 42, 1-(4-chloro-3-(trifluoromethyl)phenyl)-3-(3-(6-(isoxazol-5-yl)pyrimidin-4-yloxy)phenyl)urea], for which the IC50 (on PDGFRβ kinase; in assay [1]; at VEGFR2 kinase) was no more than 10 µM in each case.
Regarding `O=C(Nc1ccc(Oc2ccnc(-c3nnco3)c2)cc1)Nc1cc(CN2CCOCC2)cc(C(F)(F)F)c1` [Example 43, 1-(4-(2-(1,3,4-Oxadiazol-2-yl)pyridin-4-yloxy)phenyl)-3-(3-(morpholinomethyl)-5-(trifluoromethyl)phenyl)urea], the IC50 (at PDGFRβ kinase; in assay [1]; against VEGFR2 kinase) was no more than 10 µM in each case.
In the case of `CN1CCC(Oc2cc(Cl)c(C(F)(F)F)cc2NC(=O)Nc2ccc(Oc3ccnc(-c4nnco4)c3)cc2)CC1` [Example 44], the IC50 (at PDGFRβ kinase; in assay [1]; on VEGFR2 kinase) was no more than 10 µM each time.
With `O=C(Nc1ccc(Cl)c(C(F)(F)F)c1)Nc1cc(Oc2cc(-c3nnco3)ncn2)c(F)cc1F` [Example 45, 1-(5-(6-(1,3,4-Oxadiazol-2-yl)pyrimidin-4-yloxy)-2,4-difluorophenyl)-3-(4-chloro-3-(trifluoromethyl)phenyl)urea], the IC50 (on PDGFRβ kinase; in assay [1]; at VEGFR2 kinase) was no more than 10 µM in each case.
As for `Cc1nc(-c2cc(Oc3cccc(NC(=O)Nc4ccc(Cl)c(C(F)(F)F)c4)c3)ncn2)cs1` [Example 46, 1-(4-Chloro-3-(trifluoromethyl)phenyl)-3-(3-(6-(2-methylthiazol-4-yl)pyrimidin-4-yloxy)phenyl)urea], the IC50 (against PDGFRβ kinase; in assay [1]; against VEGFR2 kinase) was no more than 10 µM each time.
Regarding `CN1CCC(OCc2cc(NC(=O)Nc3ccc(Oc4ccnc(-c5nnco5)c4)cc3)cc(C(F)(F)F)c2)CC1` [Example 47, 1-(4-(2-(1,3,4-Oxadiazol-2-yl)pyridin-4-yloxy)phenyl)-3-(3-((1-methylpiperidin-4-yloxy)methyl)-5-(trifluoromethyl)phenyl)urea], the IC50 (at PDGFRβ kinase; in assay [1]; on VEGFR2 kinase) was no more than 10 µM in each case.
For the compound `O=C(Nc1cccc(Oc2cc(-c3nnco3)ncn2)c1)Nc1ccc(C(F)(F)F)c(Cl)c1` [Example 48, 1-(3-(6-(1,3,4-Oxadiazol-2-yl)pyrimidin-4-yloxy)phenyl)-3-(3-chloro-4-(trifluoromethyl)phenyl)urea], the IC50 (against PDGFRβ kinase; in assay [1]; against VEGFR2 kinase) was no more than 10 µM in each case.
As for `O=C(Nc1cccc(Oc2cc(-c3cnn(Cc4ccccc4)c3)ncn2)c1)Nc1ccc(Cl)c(C(F)(F)F)c1` [Example 49, 1-(3-(6-(1-Benzyl-1H-pyrazol-4-yl)pyrimidin-4-yloxy)phenyl)-3-(4-chloro-3-(trifluoromethyl)phenyl)urea], the values for the IC50 (on PDGFRβ kinase; in assay [1]; at VEGFR2 kinase) were greater than 10 µM, no more than 10 µM and greater than 10 µM, respectively.
Take `CN(C)CCNc1nc(-c2cc(Oc3cccc(NC(=O)Nc4ccc(Cl)c(C(F)(F)F)c4)c3)ncn2)cs1` [Example 50, 1-(4-Chloro-3-(trifluoromethyl)phenyl)-3-(3-(6-(2-(2-(dimethylamino)ethylamino)thiazol-4-yl)pyrimidin-4-yloxy)phenyl)urea]: the IC50 (against PDGFRβ kinase; in assay [1]; on VEGFR2 kinase) was no more than 10 µM throughout.
With `Cc1cn(-c2cc(NC(=O)Nc3ccc(Oc4cc(-c5cnn(C)c5)ncn4)cc3)cc(C(F)(F)F)c2)cn1` [Example 51, 1-(3-(4-Methyl-1H-imidazol-1-yl)-5-(trifluoromethyl)phenyl)-3-(4-(6-(1-methyl-1H-pyrazol-4-yl)pyrimidin-4-yloxy)phenyl)urea], the IC50 (on PDGFRβ kinase; in assay [1]; against VEGFR2 kinase) was no more than 10 µM throughout.
For the compound `COCCOc1ccc(NC(=O)Nc2ccc(Oc3cc(-c4cnn(C)c4)ncn3)cc2)cc1C(F)(F)F` [Example 52, 1-(4-(2-Methoxyethoxy)-3-(trifluoromethyl)phenyl)-3-(4-(6-(1-methyl-1H-pyrazol-4-yl)pyrimidin-4-yloxy)phenyl)urea], the IC50 (on PDGFRβ kinase; in assay [1]; against VEGFR2 kinase) was no more than 10 µM throughout.
For `COCCOc1ccc(NC(=O)Nc2ccc(Oc3cc(-c4nnco4)ncn3)cc2)cc1C(F)(F)F` [Example 53, 1-(4-(6-(1,3,4-Oxadiazol-2-yl)pyrimidin-4-yloxy)phenyl)-3-(4-(2-methoxyethoxy)-3-(trifluoromethyl)phenyl)urea], the IC50 against PDGFRβ kinase is no more than 10 µM; in assay [1], greater than 10 µM; on VEGFR2 kinase it was no more than 10 µM.
Turning to `COC(=O)Cn1cc(-c2cc(Oc3cccc(NC(=O)Nc4ccc(Cl)c(C(F)(F)F)c4)c3)ncn2)cn1` [Example 54, Methyl 2-(4-(6-(3-(3-(4-chloro-3-(trifluoromethyl)phenyl)ureido)phenoxy)pyrimidin-4-yl)-1H-pyrazol-1-yl)acetate], the IC50 (at PDGFRβ kinase; in assay [1]; against VEGFR2 kinase) was no more than 10 µM each time.
For `CNC(=O)Cn1cc(-c2cc(Oc3cccc(NC(=O)Nc4ccc(Cl)c(C(F)(F)F)c4)c3)ncn2)cn1` [Example 56, 2-(4-(6-(3-(3-(4-Chloro-3-(trifluoromethyl)phenyl)ureido)phenoxy)pyrimidin-4-yl)-1H-pyrazol-1-yl)-N-methylacetamide], the IC50 (against PDGFRβ kinase; in assay [1]; at VEGFR2 kinase) was no more than 10 µM each time.
With `Cn1cc(-c2cc(Oc3cc(NC(=O)Nc4ccc(Cl)c(C(F)(F)F)c4)c(F)cc3F)ncn2)cn1` [Example 57, 1-(4-Chloro-3-(trifluoromethyl)phenyl)-3-(2,4-difluoro-5-(6-(1-methyl-1H-pyrazol-4-yl)pyrimidin-4-yloxy)phenyl)urea], the IC50 (against PDGFRβ kinase; in assay [1]; on VEGFR2 kinase) was no more than 10 µM each time.
On to `COC(=O)Cn1ccc(-c2cc(Oc3cccc(NC(=O)Nc4ccc(Cl)c(C(F)(F)F)c4)c3)ncn2)n1` [Example 58, Methyl 2-(3-(6-(3-(3-(4-chloro-3-(trifluoromethyl)phenyl)ureido)phenoxy)pyrimidin-4-yl)-1H-pyrazol-1-yl)acetate], for which the IC50 (against PDGFRβ kinase; in assay [1]; at VEGFR2 kinase) was no more than 10 µM throughout.
`NC(=O)Cn1ccc(-c2cc(Oc3cccc(NC(=O)Nc4ccc(Cl)c(C(F)(F)F)c4)c3)ncn2)n1` [Example 59, 2-(3-(6-(3-(3-(4-Chloro-3-(trifluoromethyl)phenyl)ureido)phenoxy)pyrimidin-4-yl)-1H-pyrazol-1-yl)acetamide]: the 50% inhibitory concentration (IC50) (on PDGFRβ kinase; in assay [1]; against VEGFR2 kinase) was no more than 10 µM throughout.
